In patent US8614327B2 (Vertex Pharmaceuticals Incorporated, priority 2004, dated 2013):

Biological target: T1, ΔF508-CFTR (Homo sapiens, UniProt P13569, DEL508-508)
T1 construct: expressed in transfected cells
Assay: Membrane potential optical (FRET/VIPR) assay, identification of potentiator compounds
Type: cell-based
Conditions: Table 3, assay not given; for % Activity: relative efficacy
How it was run: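 Double-addition potentiator screen: compound delivered in gluconate-substituted Cl^--free medium, membrane potential followed via CC2-DMPE/DiSBAC2(3) FRET on VIPR. Cells were ΔF508-CFTR-expressing NIH3T3 mouse fibroblasts, held 2 h at 37° C. then 24 h at 27° C. before assay.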

T1 sequence (P13569 with tags, fused parts or gaps DEL508-508): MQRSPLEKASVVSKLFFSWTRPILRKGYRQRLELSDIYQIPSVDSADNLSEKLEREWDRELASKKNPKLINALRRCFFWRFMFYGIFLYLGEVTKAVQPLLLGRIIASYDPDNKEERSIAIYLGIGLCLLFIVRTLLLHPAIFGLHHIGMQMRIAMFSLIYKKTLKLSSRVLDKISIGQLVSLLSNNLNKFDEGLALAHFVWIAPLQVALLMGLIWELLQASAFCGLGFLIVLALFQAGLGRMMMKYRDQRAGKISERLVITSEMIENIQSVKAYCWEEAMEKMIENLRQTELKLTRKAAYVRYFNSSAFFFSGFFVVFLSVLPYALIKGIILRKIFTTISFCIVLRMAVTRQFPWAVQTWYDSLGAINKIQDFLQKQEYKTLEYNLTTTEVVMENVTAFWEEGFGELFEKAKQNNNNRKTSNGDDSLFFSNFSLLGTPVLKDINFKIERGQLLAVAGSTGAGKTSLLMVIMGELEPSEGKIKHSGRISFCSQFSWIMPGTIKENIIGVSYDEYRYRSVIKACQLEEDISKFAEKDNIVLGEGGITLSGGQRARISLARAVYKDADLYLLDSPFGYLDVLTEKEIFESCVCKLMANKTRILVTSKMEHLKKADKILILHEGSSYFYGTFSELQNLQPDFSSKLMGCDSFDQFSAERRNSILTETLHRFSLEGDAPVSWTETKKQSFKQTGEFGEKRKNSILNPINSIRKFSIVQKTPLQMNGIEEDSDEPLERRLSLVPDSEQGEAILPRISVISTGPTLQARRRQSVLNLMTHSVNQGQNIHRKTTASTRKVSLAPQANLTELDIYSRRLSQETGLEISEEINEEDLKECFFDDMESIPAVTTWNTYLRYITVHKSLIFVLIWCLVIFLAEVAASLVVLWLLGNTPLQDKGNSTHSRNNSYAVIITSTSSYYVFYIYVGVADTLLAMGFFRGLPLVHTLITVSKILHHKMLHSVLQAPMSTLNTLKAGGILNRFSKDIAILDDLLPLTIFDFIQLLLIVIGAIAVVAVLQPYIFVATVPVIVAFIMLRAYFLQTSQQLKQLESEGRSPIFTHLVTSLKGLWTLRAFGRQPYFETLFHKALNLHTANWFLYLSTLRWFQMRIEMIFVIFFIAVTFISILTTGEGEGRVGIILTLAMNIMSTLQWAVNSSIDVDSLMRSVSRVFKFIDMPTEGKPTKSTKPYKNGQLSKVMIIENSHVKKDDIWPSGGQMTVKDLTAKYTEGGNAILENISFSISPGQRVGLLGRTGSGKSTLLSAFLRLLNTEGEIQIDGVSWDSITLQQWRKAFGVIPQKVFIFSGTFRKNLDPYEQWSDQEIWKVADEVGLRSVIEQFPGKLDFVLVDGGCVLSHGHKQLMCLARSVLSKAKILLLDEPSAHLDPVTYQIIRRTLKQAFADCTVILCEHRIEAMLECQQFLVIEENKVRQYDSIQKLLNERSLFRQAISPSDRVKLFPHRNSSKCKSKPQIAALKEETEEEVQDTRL

Row | SMILES | EC50 | % Activity
1 | N#Cc1c(Cl)cccc1NC(=O)c1c[nH]c2ccccc2c1=O [Compound 222, N-(3-chloro-2-cyano-phenyl)-4-oxo-1H-quinoline-3-carboxamide] | 10 to 25 µM | ++ (between 25% to 100%)
2 | CSc1ccc(-c2ccccc2NC(=O)c2c[nH]c3ccccc3c2=O)cc1 [Compound 223, N-[2-(4-methylsulfanylphenyl)phenyl]-4-oxo-1H-quinoline-3-carboxamide] | < 10 µM | ++ (between 25% to 100%)
3 | O=C(Nc1ccc(-c2ccccc2CNC(=O)C(F)(F)F)cc1)c1c[nH]c2ccccc2c1=O [Compound 224, 4-oxo-N-[4-[2-[(2,2,2-trifluoroacetyl)aminomethyl]phenyl]phenyl]-1H-quinoline-3-carboxamide] | < 10 µM | ++ (between 25% to 100%)
4 | CCOC(=O)Nc1cc(NC(=O)c2c[nH]c3ccccc3c2=O)ccc1C(C)C [Compound 225, [2-isopropyl-5-[(4-oxo-1H-quinolin-3-yl)carbonylamino]phenyl]aminoformic acid ethyl ester] | < 10 µM | ++ (between 25% to 100%)
5 | CCCc1ccc(NC(=O)c2c[nH]c3ccccc3c2=O)cc1 [Compound 226, 4-oxo-N-(4-propylphenyl)-1H-quinoline-3-carboxamide] | – | ++ (between 25% to 100%)
6 | O=C(Nc1ccccc1-c1nc2ccccc2[nH]1)c1c[nH]c2ccccc2c1=O [Compound 227, N-[2-(3H-benzoimidazol-2-yl)phenyl]-4-oxo-1H-quinoline-3-carboxamide] | 25 to 60 µM | + (<25%)
7 | O=C(Nc1ccccc1C(O)c1ccccc1)c1c[nH]c2ccccc2c1=O (stereo not shown) [Compound 228, N-[2-(hydroxy-phenyl-methyl)phenyl]-4-oxo-1H-quinoline-3-carboxamide] | < 10 µM | ++ (between 25% to 100%)
8 | CSc1ccccc1NC(=O)c1c[nH]c2ccccc2c1=O [Compound 229, N-(2-methylsulfanylphenyl)-4-oxo-1H-quinoline-3-carboxamide] | < 10 µM | ++ (between 25% to 100%)
9 | Cc1cc2cc(NC(=O)c3c[nH]c4ccccc4c3=O)ccc2[nH]1 [Compound 230, N-(2-methyl-1H-indol-5-yl)-4-oxo-1H-quinoline-3-carboxamide] | 10 to 25 µM | ++ (between 25% to 100%)
10 | COC(=O)c1cccc(-c2cc(C(C)(C)C)c(O)cc2NC(=O)c2c[nH]c3ccccc3c2=O)c1 [Compound 231, 3-[4-hydroxy-2-[(4-oxo-1H-quinolin-3-yl)carbonylamino]-5-tert-butyl-phenyl]benzoic acid methyl ester] | < 10 µM | ++ (between 25% to 100%)
11 | CC(=O)N1CCc2ccc(NC(=O)c3c[nH]c4ccccc4c3=O)cc21 [Compound 233, N-(1-acetylindolin-6-yl)-4-oxo-1H-quinoline-3-carboxamide] | 10 to 25 µM | + (<25%)
12 | O=C(Nc1cc2[nH]ccc2cc1C(F)(F)F)c1c[nH]c2ccccc2c1=O [Compound 234, 4-oxo-N-[5-(trifluoromethyl)-1H-indol-6-yl]-1H-quinoline-3-carboxamide] | < 10 µM | ++ (between 25% to 100%)
13 | CC(C)c1ccc(NC(=O)c2c[nH]c3ccccc3c2=O)cn1 [Compound 235, N-(6-isopropyl-3-pyridyl)-4-oxo-1H-quinoline-3-carboxamide] | < 10 µM | ++ (between 25% to 100%)
14 | O=C(Nc1ccc(C(F)(F)F)cc1)c1c[nH]c2ccccc2c1=O [Compound 236, 4-oxo-N-[4-(trifluoromethyl)phenyl]-1H-quinoline-3-carboxamide] | < 10 µM | ++ (between 25% to 100%)
15 | COc1ccccc1-c1cc2cc[nH]c2cc1NC(=O)c1c[nH]c2ccccc2c1=O [Compound 237, N-[5-(2-methoxyphenyl)-1H-indol-6-yl]-4-oxo-1H-quinoline-3-carboxamide] | – | ++ (between 25% to 100%)
16 | CC(C)(C)OC(=O)N1CCC2(CCNc3cc(NC(=O)c4c[nH]c5ccccc5c4=O)ccc32)CC1 [Compound 238, 7′-[(4-oxo-1H-quinolin-3-ylcarbonyl)amino]-spiro[piperidine-4,4′(1′H)-quinoline], 2′,3′-dihydro-carboxylic acid tert-butyl ester] | < 10 µM | ++ (between 25% to 100%)
17 | COC(=O)Nc1ccc(C(C)C)c(NC(=O)c2c[nH]c3ccccc3c2=O)c1 [Compound 239, [4-isopropyl-3-[(4-oxo-1H-quinolin-3-yl)carbonylamino]phenyl]aminoformic acid methyl ester] | < 10 µM | ++ (between 25% to 100%)

Row | SMILES | EC50 | % Activity
18 | O=C(Nc1ccccc1OCc1ccccc1)c1c[nH]c2ccccc2c1=O [Compound 240, N-(2-benzyloxyphenyl)-4-oxo-1H-quinoline-3-carboxamide] | < 10 µM | ++ (between 25% to 100%)
19 | O=C(Nc1cccc2cccnc12)c1c[nH]c2ccccc2c1=O [Compound 241, 4-oxo-N-(8-quinolyl)-1H-quinoline-3-carboxamide] | 10 to 25 µM | ++ (between 25% to 100%)
20 | Nc1cc(NC(=O)c2c[nH]c3ccccc3c2=O)c(Cl)cc1Cl [Compound 242, N-(5-amino-2,4-dichloro-phenyl)-4-oxo-1H-quinoline-3-carboxamide] | < 10 µM | ++ (between 25% to 100%)
21 | O=C(Nc1ccc2c3c([nH]c2c1)CCCC3)c1c[nH]c2ccccc2c1=O [Compound 244, 4-oxo-N-(6,7,8,9-tetrahydro-5H-carbazol-2-yl)-1H-quinoline-3-carboxamide] | < 10 µM | ++ (between 25% to 100%)
22 | O=C(Nc1ccccc1Oc1ccc(Cl)cc1Cl)c1c[nH]c2ccccc2c1=O [Compound 245, N-[2-(2,4-dichlorophenoxy)phenyl]-4-oxo-1H-quinoline-3-carboxamide] | < 10 µM | ++ (between 25% to 100%)
23 | Cc1ccc(NC(=O)c2c[nH]c3ccccc3c2=O)cc1C [Compound 246, N-(3,4-dimethylphenyl)-4-oxo-1H-quinoline-3-carboxamide] | < 10 µM | ++ (between 25% to 100%)
24 | O=C(Nc1ccccc1-c1ccccc1Oc1ccccc1)c1c[nH]c2ccccc2c1=O [Compound 247, 4-oxo-N-[2-(2-phenoxyphenyl)phenyl]-1H-quinoline-3-carboxamide] | < 10 µM | ++ (between 25% to 100%)
25 | CC(=O)Nc1cc(NC(=O)c2c[nH]c3ccccc3c2=O)ccc1C [Compound 248, N-(3-Acetylamino-4-methyl-phenyl)-4-oxo-1H-quinoline-3-carboxamide] | 10 to 25 µM | ++ (between 25% to 100%)
26 | CCc1ccc(NC(=O)OC)cc1NC(=O)c1c[nH]c2ccccc2c1=O [Compound 249, [4-ethyl-3-[(4-oxo-1H-quinolin-3-yl)carbonylamino]phenyl]aminoformic acid methyl ester] | 10 to 25 µM | ++ (between 25% to 100%)
27 | COc1ccc(NC(C)=O)cc1NC(=O)c1c[nH]c2ccccc2c1=O [Compound 250, N-(5-acetylamino-2-methoxy-phenyl)-4-oxo-1H-quinoline-3-carboxamide] | 25 to 60 µM | + (<25%)
28 | CC(C)COC(=O)NCC(C)(C)c1ccc(NC(=O)c2c[nH]c3ccccc3c2=O)cc1 [Compound 251, [2-methyl-2-[4-[(4-oxo-1H-quinolin-3-yl)carbonylamino]phenyl]-propyl]aminoformic acid isobutyl ester] | < 10 µM | ++ (between 25% to 100%)
29 | O=C(c1ccccc1)c1ccccc1NC(=O)c1c[nH]c2ccccc2c1=O [Compound 252, N-(2-benzoylphenyl)-4-oxo-1H-quinoline-3-carboxamide] | 10 to 25 µM | ++ (between 25% to 100%)
30 | O=C(Nc1ccccc1-c1cccc(OC(F)(F)F)c1)c1c[nH]c2ccccc2c1=O [Compound 253, 4-oxo-N-[2-[3-(trifluoromethoxy)phenyl]phenyl]-1H-quinoline-3-carboxamide] | < 10 µM | ++ (between 25% to 100%)
31 | O=C(Nc1cc2[nH]ccc2cc1F)c1c[nH]c2ccc(F)cc2c1=O [Compound 254, 6-fluoro-N-(5-fluoro-1H-indol-6-yl)-4-oxo-1H-quinoline-3-carboxamide] | < 10 µM | ++ (between 25% to 100%)
32 | CC(C)(C)c1cc(C(C)(C)C)c(NC(=O)c2c[nH]c3ccc(S(=O)(=O)N4CCCC4)cc3c2=O)cc1O [Compound 255, N-(5-hydroxy-2,4-ditert-butyl-phenyl)-4-oxo-6-pyrrolidin-1-ylsulfonyl-1H-quinoline-3-carboxamide] | < 10 µM | ++ (between 25% to 100%)
33 | O=C(Nc1ccc2[nH]nnc2c1)c1c[nH]c2ccccc2c1=O [Compound 256, N-(1H-benzotriazol-5-yl)-4-oxo-1H-quinoline-3-carboxamide] | 25 to 60 µM | + (<25%)
